For assay [1], the target named is T1, MAGL (Mus musculus, UniProt O35678).
T1 sequence (O35678 1-303): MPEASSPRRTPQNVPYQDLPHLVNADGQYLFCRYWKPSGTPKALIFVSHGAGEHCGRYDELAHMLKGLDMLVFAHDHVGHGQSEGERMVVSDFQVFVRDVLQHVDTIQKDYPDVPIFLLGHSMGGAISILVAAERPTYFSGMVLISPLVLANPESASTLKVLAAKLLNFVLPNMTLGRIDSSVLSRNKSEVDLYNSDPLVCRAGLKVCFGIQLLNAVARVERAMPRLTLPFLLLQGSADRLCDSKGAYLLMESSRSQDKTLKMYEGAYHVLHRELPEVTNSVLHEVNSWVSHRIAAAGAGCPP
Put plainly: In vitro competitive activity-based protein profiling (Table 2, % inhibition at 1 μM). The following applies: read-out: % Inhibition at 1 μM MAGL. Format: biochemical. The procedure:
After 30 min, FP—Rh (1.0 μL, 50 μM in DMSO) was added and the mixture was incubated for another 30 min at 37° C. Reactions were quenched with SDS loading buffer (50 μL-4×) and run on SDS-PAGE.
Cell lysates were diluted with mock proteomes for use in competitive ABPP experiments.

Assay [2] has as its target T1, MAGL. Put plainly: biochemical. The following applies: mouse; in vitro competitive ABPP; read-out: Mouse (IC50 value, nM) MAGL.
Assay [3] has as its target T2, ABHD6 (Mus musculus, UniProt Q8R2Y0).
T2 sequence (Q8R2Y0 1-336): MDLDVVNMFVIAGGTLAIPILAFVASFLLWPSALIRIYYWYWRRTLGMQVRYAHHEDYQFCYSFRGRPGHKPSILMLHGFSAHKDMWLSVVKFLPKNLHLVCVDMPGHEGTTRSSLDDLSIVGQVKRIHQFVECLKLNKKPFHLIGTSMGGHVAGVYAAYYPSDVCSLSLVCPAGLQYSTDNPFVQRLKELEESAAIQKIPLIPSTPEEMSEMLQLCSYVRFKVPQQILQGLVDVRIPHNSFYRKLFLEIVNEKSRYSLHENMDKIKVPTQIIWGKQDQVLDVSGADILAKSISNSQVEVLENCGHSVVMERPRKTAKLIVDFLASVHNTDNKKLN
Put plainly: biochemical. Conditions: in vitro competitive ABPP.

Assay [4] deals with T3, Mouse brain MAGL (Mus musculus, UniProt O35678).
T3 construct: from tissue; host or cells: brain of wild-type C57Bl/6J mice dosed by oral gavage
T3 sequence (O35678 1-303): T1 sequence (O35678 1-303)
Put plainly: Mouse brain proteomes from inhibitor treated mice (oral gavage, ABPP analysis). In kind it is in vivo. Conditions: p.o., sacrificed 4 h following administration.

The target in assay [5] is T4, FAAH (Mus musculus, UniProt O08914).
T4 sequence (O08914 1-579): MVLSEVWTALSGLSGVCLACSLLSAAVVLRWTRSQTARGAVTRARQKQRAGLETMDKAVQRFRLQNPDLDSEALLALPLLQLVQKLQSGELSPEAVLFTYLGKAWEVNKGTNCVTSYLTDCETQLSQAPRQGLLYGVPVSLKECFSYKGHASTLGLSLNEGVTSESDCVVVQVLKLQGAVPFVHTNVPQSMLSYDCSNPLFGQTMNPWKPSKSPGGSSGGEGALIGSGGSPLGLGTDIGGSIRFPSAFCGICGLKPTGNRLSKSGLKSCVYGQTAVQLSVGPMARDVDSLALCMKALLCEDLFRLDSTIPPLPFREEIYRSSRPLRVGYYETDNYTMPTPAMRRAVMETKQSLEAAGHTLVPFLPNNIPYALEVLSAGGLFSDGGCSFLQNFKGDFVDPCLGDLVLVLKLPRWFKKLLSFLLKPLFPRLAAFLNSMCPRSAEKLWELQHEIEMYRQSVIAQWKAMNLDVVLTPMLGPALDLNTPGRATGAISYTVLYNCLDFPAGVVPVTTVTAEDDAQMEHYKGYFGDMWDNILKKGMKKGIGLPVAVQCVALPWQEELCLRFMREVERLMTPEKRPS
Put plainly: In vitro competitive activity-based protein profiling (Table 2, % inhibition at 1 μM). Format: biochemical. Conditions: read-out: % Inhibition at 1 μM FAAH.

Assay [6] has as its target T2, ABHD6. The description is as above. In kind it is biochemical. The following applies: read-out: % Inhibition at 1 μM ABHD6.
Assay [7] concerns the target T4, FAAH. Put plainly: biochemical. Conditions: in vitro competitive ABPP.

Some results are limits rather than exact numbers.

For orientation: inhibition means how much of the control response was suppressed. Usually IC50 stands for the concentration that inhibits the measured activity by half. For the compound `O=C(OC(C(F)(F)F)C(F)(F)F)N1CC2CN(Cc3cccc(N4CCOCC4)c3C(F)(F)F)CC2C1` (stereo not drawn) [Example 129, 1,1,1,3,3,3-hexafluoropropan-2-yl 5-[[3-(morpholin-4-yl)-2-(trifluoromethyl)phenyl]methyl]-octahydropyrrolo[3,4-c]pyrrole-2-carboxylate], the inhibition at 1 µM was > 75% in assay [1], < 25% in assay [5] and < 25% in assay [6]. For the same compound, the IC50 in assay [2] is < 100 nM; in assay [3], 1000 to 10000 nM; in assay [7], 1000 to 10000 nM. Also, the inhibition at 5 mg/kg in assay [4] is ≥ 75%.

In the case of `CCn1cc(CN2CC3CN(C(=O)OC(C(F)(F)F)C(F)(F)F)CC3C2)c(-c2cccnc2)n1` (stereo not drawn) [Example 71, 1,1,1,3,3,3-Hexafluoropropan-2-yl 5-[[1-ethyl-3-(pyridin-3-yl)-1H-pyrazol-4-yl]methyl]-octahydropyrrolo[3,4-c]pyrrole-2-carboxylate], the inhibition at 1 µM in assay [1] is > 75%; in assay [5], < 25%; in assay [6], 25 to 75%. Besides, the values for the IC50 in assay [2], in assay [3] and in assay [7] were < 100 nM, 1000 to 10000 nM and 1000 to 10000 nM, respectively. This compound came in with an inhibition at 5 mg/kg in assay [4] of 25 to 75%.

Turning to `CCn1cc(CN2CC3CN(C(=O)OC(C(F)(F)F)C(F)(F)F)CC3C2)c(-c2ccccc2N2CCC2)n1` (stereo not drawn) [Example 63, 1,1,1,3,3,3-Hexafluoropropan-2-yl 5-([3-[2-(azetidin-1-yl)phenyl]-1-ethyl-1H-pyrazol-4-yl]methyl)-octahydropyrrolo[3,4-c]pyrrole-2-carboxylate], the values for the inhibition at 1 µM in assay [1], in assay [5] and in assay [6] were > 75%, < 25% and 25 to 75%, respectively. The IC50 in assay [2] was < 100 nM; in assay [3], 100 to 1000 nM; in assay [7], > 10000 nM. The inhibition at 5 mg/kg in assay [4] was ≥ 75%.

For `CCn1cc(CN2CC3CN(C(=O)OC(C(F)(F)F)C(F)(F)F)CC3C2)c(-c2ccccc2N2CCCCC2)n1` (stereo not drawn) [Example 130, 1,1,1,3,3,3-hexafluoropropan-2-yl 5-([1-ethyl-3-[2-(piperidin-1-yl)phenyl]-1H-pyrazol-4-yl]methyl)-octahydropyrrolo[3,4-c]pyrrole-2-carboxylate], the inhibition at 1 µM was > 75% in assay [1], < 25% in assay [5] and < 25% in assay [6]. The results for the IC50 in assay [2], in assay [3] and in assay [7] were < 100 nM, 1000 to 10000 nM and > 10000 nM, respectively. For the same compound, the inhibition at 5 mg/kg in assay [4] is ≤ 25%.

`Cc1c(CN2CC3CN(C(=O)OC(C(F)(F)F)C(F)(F)F)CC3C2)cccc1N1CCOCC1` (stereo not drawn) [Example 47, 1,1,1,3,3,3-Hexafluoropropan-2-yl 5-[[2-methyl-3-(morpholin-4-yl)phenyl]methyl]-octahydropyrrolo[3,4-c]pyrrole-2-carboxylate]: the inhibition at 1 µM in assay [1] was > 75%; in assay [5], 25 to 75%; in assay [6] it was 25 to 75%. Besides, the IC50 in assay [2] was < 100 nM; in assay [3], 1000 to 10000 nM; in assay [7], 1000 to 10000 nM. The inhibition at 5 mg/kg in assay [4] was ≥ 75%.

On to `CCn1cc(CN2CC3CN(C(=O)OC(C(F)(F)F)C(F)(F)F)CC3C2)c(-c2ccc(N3CCCCC3)cc2)n1` (stereo not drawn) [Example 133, 1,1,1,3,3,3-hexafluoropropan-2-yl 5-([1-ethyl-3-[4-(piperidin-1-yl)phenyl]-1H-pyrazol-4-yl]methyl)-octahydropyrrolo[3,4-c]pyrrole-2-carboxylate], for which the inhibition at 1 µM in assay [1] was > 75%; in assay [5] it was < 25%; in assay [6], < 25%. For the same compound, the IC50 in assay [2] was < 100 nM; in assay [3], 1000 to 10000 nM; in assay [7], 1000 to 10000 nM. Besides, in assay [4], the inhibition at 5 mg/kg is ≤ 25%.

`CS(=O)(=O)N1CC2(CCN(c3ccccc3CN3CC4CN(C(=O)OC(C(F)(F)F)C(F)(F)F)CC4C3)C2)C1` (stereo not drawn) [Example 136, 1,1,1,3,3,3-hexafluoropropan-2-yl 5-[(2-[2-methanesulfonyl-2,6-diazaspiro[3.4]octan-6-yl]phenyl)methyl]-octahydropyrrolo[3,4-c]pyrrole-2-carboxylate]: the inhibition at 1 µM in assay [1] was > 75%; in assay [5] it was < 25%; in assay [6], < 25%. Further, the figures for the IC50 in assay [2], in assay [3] and in assay [7] were < 100 nM, 1000 to 10000 nM and 1000 to 10000 nM, respectively. The inhibition at 5 mg/kg in assay [4] is ≤ 25%.

As to `CC(=O)N1CCN(c2cccc(CN3CC4CN(C(=O)OC(C(F)(F)F)C(F)(F)F)CC4C3)c2C)CC1` (stereo not drawn) [Example 152, 1,1,1,3,3,3-hexafluoropropan-2-yl 5-[[3-(4-acetylpiperazin-1-yl)-2-methylphenyl]methyl]-octahydropyrrolo[3,4-c]pyrrole-2-carboxylate], the inhibition at 1 µM in assay [1] was > 75%; in assay [5], < 25%; in assay [6], 25 to 75%. Besides, the IC50 in assay [2] is < 100 nM; in assay [3], 1000 to 10000 nM; in assay [7], 1000 to 10000 nM. Further, the inhibition at 5 mg/kg in assay [4] is ≤ 25%.

As for `Cc1cccc(CN2CC3CN(C(=O)OC(C(F)(F)F)C(F)(F)F)CC3C2)c1N1CCC2(CCOC2)C1` (stereo not drawn) [Example 40, 1,1,1,3,3,3-Hexafluoropropan-2-yl 5-[(3-methyl-2-[2-oxa-7-azaspiro[4.4]nonan-7-yl]phenyl)methyl]-octahydropyrrolo[3,4-c]pyrrole-2-carboxylate], the inhibition at 1 µM in assay [1] was > 75%; in assay [5] it was < 25%; in assay [6], < 25%. Moreover, the IC50 in assay [2] was < 100 nM; in assay [3], 1000 to 10000 nM; in assay [7] it was 1000 to 10000 nM. In assay [4], this compound came in with an inhibition at 5 mg/kg of 25 to 75%.

In the case of `Cc1ccc(CN2CC3CN(C(=O)OC(C(F)(F)F)C(F)(F)F)CC3C2)c(-c2ccccc2)c1` (stereo not drawn) [Example 207, 1,1,1,3,3,3-hexafluoropropan-2-yl 5-((5-methyl-[1,1′-biphenyl]-2-yl)methyl)hexahydropyrrolo[3,4-c]pyrrole-2(1H)-carboxylate], the inhibition at 1 µM is > 75% in assay [1], < 25% in assay [5] and < 25% in assay [6]. Besides, the IC50 lay within 100 to 1000 nM in assay [2], 1000 to 10000 nM in assay [3] and 1000 to 10000 nM in assay [7]. Also, the inhibition at 5 mg/kg in assay [4] was ≥ 75%.

On to `CC(C)c1cc(CN2CC3CN(C(=O)OC(C(F)(F)F)C(F)(F)F)CC3C2)n(C2CCCCC2)n1` (stereo not drawn) [Example 61, 1,1,1,3,3,3-Hexafluoropropan-2-yl 5-[[1-cyclohexyl-3-(propan-2-yl)-1H-pyrazol-5-yl]methyl]-octahydropyrrolo[3,4-c]pyrrole-2-carboxylate], for which the inhibition at 1 µM was > 75% in assay [1], < 25% in assay [5] and 25 to 75% in assay [6]. For the same compound, the IC50 in assay [2] was < 100 nM; in assay [3], 1000 to 10000 nM; in assay [7], > 10000 nM. The inhibition at 5 mg/kg in assay [4] is ≥ 75%.

`O=C(OC(C(F)(F)F)C(F)(F)F)N1CC2CN(Cc3cccc(C(F)(F)F)c3N3CCOCC3)CC2C1` (stereo not drawn) [Example 45, 1,1,1,3,3,3-Hexafluoropropan-2-yl 5-[[2-(morpholin-4-yl)-3-(trifluoromethyl)phenyl]methyl]-octahydropyrrolo[3,4-c]pyrrole-2-carboxylate]: the inhibition at 1 µM in assay [1] is > 75%; in assay [5] it was < 25%; in assay [6], < 25%. Further, the IC50 in assay [2] was < 100 nM; in assay [3], 1000 to 10000 nM; in assay [7], 1000 to 10000 nM. For the same compound, the inhibition at 5 mg/kg in assay [4] is ≥ 75%.

(Values after US9828379B2 (priority 2013, dated 2017).)
